Measured values reported in US8569281B2, “Compounds and their administration for treating a neurodegenerative disease as well as a method for identifying a compound capable of inhibiting a kinase, such as LRRK” (Medical Research Council Technology, priority 2010, dated 2013).

biological target: LRRK2 (Homo sapiens (Human), UniProt Q5S007); test: In Vitro LRRK2 Assay (LabChip 3000, fluorescently-labeled peptide substrate); format: biochemical; conditions: ATP 130 μM, substrate 1 μM, 2 hours, ambient temperature; LRRK2 variant not given; read-out: Ki (μM), affinity values for LRRK2
Sequence (Q5S007 whole entry G2019S): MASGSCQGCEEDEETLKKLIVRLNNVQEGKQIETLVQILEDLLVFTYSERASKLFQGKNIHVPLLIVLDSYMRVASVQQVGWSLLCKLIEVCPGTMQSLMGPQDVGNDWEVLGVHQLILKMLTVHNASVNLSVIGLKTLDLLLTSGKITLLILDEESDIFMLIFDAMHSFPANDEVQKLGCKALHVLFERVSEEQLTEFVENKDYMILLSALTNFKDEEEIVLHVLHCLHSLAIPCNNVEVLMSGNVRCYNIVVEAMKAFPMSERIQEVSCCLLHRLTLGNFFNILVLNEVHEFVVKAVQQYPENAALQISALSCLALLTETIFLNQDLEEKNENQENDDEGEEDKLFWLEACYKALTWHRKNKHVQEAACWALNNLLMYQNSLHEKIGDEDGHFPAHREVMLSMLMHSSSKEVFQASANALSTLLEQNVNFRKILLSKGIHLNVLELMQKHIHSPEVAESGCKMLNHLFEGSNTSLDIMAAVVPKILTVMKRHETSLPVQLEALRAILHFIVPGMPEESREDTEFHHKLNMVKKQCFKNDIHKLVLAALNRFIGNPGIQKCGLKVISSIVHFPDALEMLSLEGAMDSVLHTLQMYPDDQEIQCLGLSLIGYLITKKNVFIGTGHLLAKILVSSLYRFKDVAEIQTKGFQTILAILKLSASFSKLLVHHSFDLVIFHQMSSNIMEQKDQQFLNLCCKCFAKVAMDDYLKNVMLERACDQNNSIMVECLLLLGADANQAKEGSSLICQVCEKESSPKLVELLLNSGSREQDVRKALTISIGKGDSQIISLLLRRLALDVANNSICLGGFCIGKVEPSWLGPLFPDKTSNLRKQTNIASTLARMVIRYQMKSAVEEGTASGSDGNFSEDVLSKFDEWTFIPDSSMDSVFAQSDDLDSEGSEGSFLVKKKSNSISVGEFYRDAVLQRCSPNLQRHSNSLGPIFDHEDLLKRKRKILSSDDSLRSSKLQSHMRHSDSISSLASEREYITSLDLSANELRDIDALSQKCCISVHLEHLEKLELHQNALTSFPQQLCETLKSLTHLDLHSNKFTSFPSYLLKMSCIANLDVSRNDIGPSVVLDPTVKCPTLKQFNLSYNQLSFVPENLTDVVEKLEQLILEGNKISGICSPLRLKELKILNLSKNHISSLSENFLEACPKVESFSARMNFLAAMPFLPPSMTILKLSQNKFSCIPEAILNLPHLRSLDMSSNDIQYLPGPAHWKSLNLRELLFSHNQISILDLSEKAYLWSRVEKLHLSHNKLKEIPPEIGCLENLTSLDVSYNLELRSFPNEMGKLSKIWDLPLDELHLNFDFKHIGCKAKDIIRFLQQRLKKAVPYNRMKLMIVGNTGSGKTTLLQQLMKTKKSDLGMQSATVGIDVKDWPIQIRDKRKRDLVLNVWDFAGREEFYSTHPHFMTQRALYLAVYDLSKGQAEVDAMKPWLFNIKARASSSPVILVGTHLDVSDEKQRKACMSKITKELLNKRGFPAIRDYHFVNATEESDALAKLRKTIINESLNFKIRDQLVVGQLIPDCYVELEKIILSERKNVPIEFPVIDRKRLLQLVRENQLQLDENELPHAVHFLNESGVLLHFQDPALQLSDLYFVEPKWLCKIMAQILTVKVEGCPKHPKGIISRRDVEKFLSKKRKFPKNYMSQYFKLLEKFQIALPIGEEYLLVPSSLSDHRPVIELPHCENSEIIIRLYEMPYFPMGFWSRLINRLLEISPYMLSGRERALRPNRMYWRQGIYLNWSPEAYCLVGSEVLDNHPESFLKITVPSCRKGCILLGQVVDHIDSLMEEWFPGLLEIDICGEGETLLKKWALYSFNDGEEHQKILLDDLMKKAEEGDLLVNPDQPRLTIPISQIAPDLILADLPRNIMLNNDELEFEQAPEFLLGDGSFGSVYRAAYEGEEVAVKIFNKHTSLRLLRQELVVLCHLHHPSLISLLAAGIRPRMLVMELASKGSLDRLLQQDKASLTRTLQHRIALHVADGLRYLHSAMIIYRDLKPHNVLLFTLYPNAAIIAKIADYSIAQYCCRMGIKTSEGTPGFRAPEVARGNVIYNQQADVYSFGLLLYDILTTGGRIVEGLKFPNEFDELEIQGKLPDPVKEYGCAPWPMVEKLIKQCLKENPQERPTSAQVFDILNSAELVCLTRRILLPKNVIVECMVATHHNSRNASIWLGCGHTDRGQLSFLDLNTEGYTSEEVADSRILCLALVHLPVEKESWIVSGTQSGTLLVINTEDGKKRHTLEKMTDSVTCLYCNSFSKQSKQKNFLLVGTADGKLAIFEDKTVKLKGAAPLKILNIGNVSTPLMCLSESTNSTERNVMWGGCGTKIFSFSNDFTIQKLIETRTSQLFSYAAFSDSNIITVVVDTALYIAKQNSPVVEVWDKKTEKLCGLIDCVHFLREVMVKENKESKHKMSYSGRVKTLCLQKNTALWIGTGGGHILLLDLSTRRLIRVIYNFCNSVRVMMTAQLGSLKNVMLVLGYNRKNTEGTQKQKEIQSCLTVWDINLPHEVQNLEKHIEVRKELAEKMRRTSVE
Procedure: This assay was used to determine a compound's potency in inhibiting activity of LRRK2 by determining, Kiapp, IC50, or percent inhibition values. In a polypropylene plate, LRRK2, fluorescently-labeled peptide substrate, ATP and test compound were incubated together. Using a LabChip 3000 (Caliper Life Sciences), after the reaction the substrate was separated by capillary electrophoresis into two populations: phosphorylated and unphosphorylated. The relative amounts of each were quantitated by fluorescence intensity. LRRK2 Ki was determined according to the equation: Y=V0*(1−((x+Ki*(1+S/Km)+Et)/(2*Et)−(((x+Ki*(1+S/Km)+Et)^2−(4*Et*x))^0.5)/(2*Et))).
Ki values in Table 4 and elsewhere herein are shown in μM.
Assay conditions and materials used were as follows:
Compound Plate Preparation:
For serial dilutions, 34.6 μl DMSO was added to columns 3-24.
Total and Blank Preparation:
In Complete Reaction Buffer, substrate was diluted to 4 μM. Equal volumes of Complete Reaction Buffer and 4 μM substrate were combined to obtain the blank. Equal volumes of Complete Reaction Buffer and 4 μM substrate were combined and to the combined solution was added 2× final LRRK2 concentration.
To a 50 μl polypropylene plate, 5 μl/well buffer/substrate was added by hand to Blank wells. A Biomek FX was used to start the kinase reaction (“PLK SAR 23 ATP”). The following were added to the appropriate wells: • 2 μl compound+23 μl ATP; • 5 μl/well compound/ATP in Assay Plate; • 5 μl/well kinase/substrate in Assay Plate;
The plate was incubated for 2 hours in the dark. Biomek FX was used to stop the kinase reaction (“PLK Stop”), and 10 μl/well Stop solution was added to the Assay Plate. Results were read on the LabChip 3000.
The LabChip 3000 was run using the job “LRRK2 IC50” with the following job settings: • Pressure: −1.4 psi • Downstream voltage: −500 V • Upstream voltage: −2350 V • Post sample buffer sip time: 75 seconds • Post dye buffer sip time: 75 seconds • Final delay time: 200 seconds Parkinson's Disease Animal Model

“3-(1-((2,2-difluorocyclopropyl)methyl)-1H-benzo[d]imidazol-5-yl)-4-(tetrahydro-2H-pyran-4-yloxy)-1H-pyrazolo[4,3-c]pyridine [Example 127]” and “3-(1-isopropyl-1H-benzo[d]imidazol-5-yl)-4-(tetrahydro-2H-pyran-4-yloxy)-1H-pyrazolo[4,3-c]pyridine [Example 123]” are within 1.5-fold of each other in Ki: 0.023 µM for the first, 0.02 µM for the second.

Going from `CC1CCCN(C(=O)CCc2[nH]nc3ccnc(NC4CCOCC4)c23)C1` (stereo in doubt) [Example 2, 1-[(3R)-3-methylpiperidin-1-yl]-3-[4-(tetrahydro-2H-pyran-4-ylamino)-1H-pyrazolo-[4,3-c]pyridin-3-yl]propan-1-one] to `O=C(CCc1[nH]nc2ccnc(OC3CCCCC3)c12)N1CCC[C@H](c2ccccc2)C1` [Example 6, 3-[4-(Cyclohexyloxy)-1H-pyrazolo[4,3-c]pyridin-3-yl]-1-[(3R)-3-phenylpiperidin-1-yl]propan-1-one], the Ki falls from 0.034 µM to 0.014 µM (2.4-fold).

Going from `O=C(c1ccc(CCc2n[nH]c3ccnc(NC4CCCCC4)c23)cc1)N1CCN(C2CC2)CC1` [Example 8, (4-{2-[4-(Cyclohexylamino)-1H-pyrazolo[4,3-c]pyridin-3-yl]ethyl}phenyl)(4-cyclopropylpiperazin-1-yl)methanone] to `c1cc(-c2n[nH]c3ccnc(NC4CCOCC4)c23)cc(N2CCOCC2)n1` [Example 9, 3-[2-(Morpholin-4-yl)pyridin-4-yl]-N-(tetrahydro-2H-pyran-4-yl)-1H-pyrazolo[4,3-c]pyridin-4-amine], the Ki rises from 0.017 µM to 0.027 µM (1.6-fold). The first binds more tightly here.

Compared with `CN1CCN(c2cc(-c3n[nH]c4ccnc(OC5CCOCC5)c34)ccn2)CC1` [Example 14, 3-[2-(4-Methylpiperazin-1-yl)pyridin-4-yl]-4-(tetrahydro-2H-pyran-4-yloxy)-1H-pyrazolo[4,3-c]pyridine], `c1cc2n[nH]c(C3CC3)c2c(OC2CCCCC2)n1` [Example 26, 4-(Cyclohexyloxy)-3-cyclopropyl-1H-pyrazolo[4,3-c]pyridine] is 4-fold higher in Ki: 0.006 µM for the first, 0.024 µM for the second.

First: c1cc2n[nH]c(C3CC3)c2c(OC2CCOCC2)n1 [Example 28, 3-Cyclopropyl-4-(tetrahydro-2H-pyran-4-yloxy)-1H-pyrazolo[4,3-c]pyridine]
Second: CC[C@@H](C)Oc1nccc2[nH]nc(C3CC3)c12 [Example 29, 3-Cyclopropyl-4-[(2R)-butan-2-yloxy)-1H-pyrazolo[4,3-c]pyridine]
The Ki of the first is 2.2-fold lower: 0.035 µM for the first, 0.078 µM for the second. The first binds more tightly here.

`Cc1[nH]nc2ccnc(OC3CCOC3)c12` (stereo not drawn) [Example 31] and `c1coc(-c2n[nH]c3ccnc(OC4CCOCC4)c23)c1` [Example 37, 3-(Furan-2-yl)-4-(tetrahydro-2H-pyran-4-yloxy)-1H-pyrazolo[4,3-c]pyridine] are within 1.5-fold of each other in Ki: 0.158 µM for the first, 0.132 µM for the second.

Compared with `c1cc2[nH]nc(-c3cnn(C4CCCC4)c3)c2c(OC2CCOCC2)n1` [Example 39, 3-(1-Cyclopentyl-1H-pyrazol-4-yl)-4-(tetrahydro-2H-pyran-4-yloxy)-1H-pyrazolo[4,3-c]pyridine], `c1cc2[nH]nc(-c3cnn(CC4CCC4)c3)c2c(OC2CCCCC2)n1` [Example 41, 3-[1-(Cyclobutylmethyl)-1H-pyrazol-4-yl]-4-(cyclohexyloxy)-1H-pyrazolo[4,3-c]pyridine] is 9.2-fold higher in Ki: 0.006 µM for the first, 0.055 µM for the second. The first binds more tightly here.

First: Cn1cc(/C=C/c2n[nH]c3ccnc(OC4CCCCC4)c23)cn1 [Example 52, 4-(Cyclohexyloxy)-3-[(E)-2-(1-methyl-1H-pyrazol-4-yl)ethenyl]-1H-pyrazolo[4,3-c]pyridine]
Second: CC(C)Oc1nccc2[nH]nc(-c3cc(C(=O)N(C)C)n(C(C)C)c3)c12 [Example 54, 4-(4-isopropoxy-1H-pyrazolo[4,3-c]pyridine-3-yl)-1-isopropyl-N,N-dimethyl-1H-pyrrole-2-carboxamide]
The Ki of the first is 60-fold lower: 0.0003 µM for the first, 0.018 µM for the second. The first binds more tightly here.

`CC(C)Oc1nccc2[nH]nc(-c3cc(C(=O)N4CCCCC4)n(C(C)C)c3)c12` [Example 56, (4-(4-Isopropoxy-1H-pyrazolo[4,3-c]pyridin-3-yl)-1-isopropyl-1H-pyrrol-2-yl)(piperidin-1-yl)methanone] and `CC(C)Oc1nccc2[nH]nc(-c3cc(C(=O)N4CCOCC4)n(C(C)C)c3)c12` [Example 57, (4-(4-Isopropoxy-1H-pyrazolo[4,3-c]pyridin-3-yl)-1-isopropyl-1H-pyrrol-2-yl)(morpholino)methanone] are the same in Ki: 0.019 µM for the first, 0.019 µM for the second.

First: CC(C)Oc1nccc2[nH]nc(-c3cc(C(=O)NC4COC4)n(C(C)C)c3)c12 [Example 59, 4-(4-Isopropoxy-1H-pyrazolo[4,3-c]pyridin-3-yl)-1-isopropyl-N-(oxetan-3-yl)-1H-pyrrole-2-carboxamide]
Second: COc1nccc2[nH]nc(-c3cc(C(=O)N(C)C)n(C(C)C)c3)c12 [Example 61, 1-Isopropyl-4-(4-methoxy-1H-pyrazolo[4,3-c]pyridin-3-yl)-N,N-dimethyl-1H-pyrrole-2-carboxamide]
The Ki of the first is 32-fold lower: 0.0024 µM for the first, 0.077 µM for the second.

First: COc1nccc2[nH]nc(-c3cc(C(=O)NC4COC4)n(C(C)C)c3)c12 [Example 64, 1-isopropyl-4-(4-methoxy-1H-pyrazolo[4,3-c]pyridin-3-yl)-N-(oxetan-3-yl)-1H-pyrrole-2-carboxamide]
Second: CC(C)n1cc(-c2n[nH]c3ccnc(OC4CCOCC4)c23)cc1C(=O)N1CCOCC1 [Example 65, (1-isopropyl-4-(4-(tetrahydro-2H-pyran-4-yloxy)-1H-pyrazolo[4,3-c]pyridin-3-yl)-1H-pyrrol-2-yl)(morpholino)methanone]
The Ki of the first is 2.8-fold lower: 0.014 µM for the first, 0.039 µM for the second.

First: CC(C)n1cc(-c2n[nH]c3ccnc(OC4CCOCC4)c23)cc1C(=O)N(C)C [Example 66, 1-isopropyl-N,N-dimethyl-4-(4-(tetrahydro-2H-pyran-4-yloxy)-1H-pyrazolo[4,3-c]pyridin-3-yl)-1H-pyrrole-2-carboxamide]
Second: CC(C)n1cc(-c2n[nH]c3ccnc(OC4CCOCC4)c23)cc1C(=O)NC1COC1 [Example 70, 1-isopropyl-N-(oxetan-3-yl)-4-(4-(tetrahydro-2H-pyran-4-yloxy)-1H-pyrazolo[4,3-c]pyridin-3-yl)-1H-pyrrole-2-carboxamide]
The Ki of the first is 15-fold higher: 0.045 µM for the first, 0.003 µM for the second. The second binds more tightly here.

Going from `O=C(c1cc(-c2n[nH]c3ccnc(OC4CCOCC4)c23)ccn1)N1CCOCC1` [Example 73, Morpholino(4-(4-(tetrahydro-2H-pyran-4-yloxy)-1H-pyrazolo[4,3-c]pyridin-3-yl)pyridin-2-yl)methanone] to `FC(F)(F)COc1nccc2[nH]nc(-c3ccnc(N4CCOCC4)c3)c12` [Example 74, 4-(4-(4-(2,2,2-Trifluoroethoxy)-1H-pyrazolo[4,3-c]pyridin-3-yl)pyridin-2-yl)morpholine], the Ki falls from 0.221 µM to 0.031 µM (7.1-fold).

Compared with `CC(C)n1cc(-c2n[nH]c3ccnc(OCC(F)(F)F)c23)cn1` [Example 76, 3-(1-Isopropyl-1H-pyrazol-4-yl)-4-(2,2,2-trifluoroethoxy)-1H-pyrazolo[4,3-c]pyridine], `CC(C)n1cc(-c2n[nH]c3ccnc(OC(C)C(F)(F)F)c23)cn1` (stereo not drawn) [Example 78, 3-(1-Isopropyl-1H-pyrazol-4-yl)-4-(2,2,2-trifluoro-1-methyl-ethoxy)-1H-pyrazolo[4,3-c]pyridine] is 2-fold lower in Ki: 0.026 µM for the first, 0.013 µM for the second.

same assay, conditions: read-out: Ki (μM), affinity values for LRRK2

Compared with “3-(1-(Oxetan-3-yl)-1H-benzo[d]imidazol-6-yl)-4-(tetrahydro-2H-pyran-4-yloxy)-1H-pyrazolo[4,3-c]pyridine [Example 124]”, “3-(1-(oxetan-3-yl)-1H-benzo[d]imidazol-5-yl)-4-(tetrahydro-2H-pyran-4-yloxy)-1H-pyrazolo[4,3-c]pyridine [Example 125]” is 2.9-fold higher in Ki: 0.019 µM for the first, 0.056 µM for the second.
